Type in all cases: in vivo, human
Experiment [1] deals with patients with HBeAg negative chronic hepatitis B. As to the kind of experiment: Curative effects on patients with hepatitis B, randomized controlled trial (Example 31). To be noted: after 30-month treatment, control group: Entecavir + placebo.
Experiment [2] relates to CHB patients (hepatic fibrosis). Description: Curative effect on patients with hepatic fibrosis, double-blind placebo-control multicenter trial (Example 34). To be noted: after 12 months, treatment group: Entecavir + test sample, P<0.001.
Experiment [3] relates to patients with advanced primary hepatocarcinoma after surgery. As to the kind of experiment: Curative effect of the compound granules on patients with liver cancer (Example 36). To be noted: for patients of liver cancer recurred: test sample + Entecavir vs Entecavir.

The values below come from patent publication US20210169961A1, “HEPATOPROTECTIVE TRADITIONAL CHINESE MEDICINE COMPOSITION, EXTRACT THEREOF, AND PHARMACEUTICAL USE THEREOF” (SHUGUANG HOSPITAL AFFILIATED TO SHANGHAI UNIVERSITY OF …, priority 2018, published 2021).

Structures are written as SMILES.

For the compound `C=C1[C@H](CO)[C@@H](O)C[C@@H]1n1cnc2c(=O)[nH]c(N)nc21` [Entecavir], the ALT recurrence rate in experiment [1] (treatment group: test sample 60 g clear extract/day + Entecavir 0.5 mg/day) was found to be 93.2%. Besides, in experiment [1] (treatment group: test sample + Entecavir), the “HBsAg averagely reduced by” value is 0.028 log IU/ml. Besides, in experiment [2], the “HBeAg levels compared to those before treatment” value was “remarkably decreased”. Besides, in experiment [3] (after treatment), the “therapeutic effects on traditional Chinese medicine symptoms: invalid cases” value is listed as 65 cases, the “therapeutic effects on traditional Chinese medicine symptoms: patients with curative effect” value amounted to 0 patients and the “therapeutic effects on traditional Chinese medicine symptoms: valid cases” value was 16 cases. Also, the “patients with nausea and vomiting improved” value in experiment [3] (among 38 patients (treatment group) / 51 patients (control group)) stood at 15 cases. In addition, the “patients with tastelessness improved” value in experiment [3] (among 61 patients (treatment group) / 58 patients (control group)) was determined as 25 cases. Moreover, in experiment [3] (among 68 patients (treatment group) / 62 patients (control group)), the “patients with stomach distension improved” value was 35 cases. Besides, in experiment [3] (among 73 patients (treatment group) / 69 patients (control group)), the “patients with fatigue and acratia improved” value was 45 cases. Besides, in experiment [3] (at 3 months of follow-up visit), the “patients of liver cancer recurred” value is listed as 48 patients. In addition, the “patients of liver cancer recurred” value in experiment [3] (at 3 months of treatment) came to 13 patients. Moreover, in experiment [3] (at 6 months of treatment), the “patients of liver cancer recurred” value is 44 patients. For the same compound, the accumulative survival rate in experiment [3] (treatment group: test sample 60 g clear extract/day + Entecavir 0.5 mg/day, control group: Entecavir 0.5 mg/day) was 76.7%.
